The values below come from PubChem BioAssay AID1259407 (Chemical Carcinogenesis Research Information System (CCRIS), 2018).

The subject of this series is CCRIS mutagenicity, Ames/micronucleus/aberration tests. As to the kind of experiment: CCRIS mutagenicity studies.
Where [1] appears, read: Test System: AMES SALMONELLA TYPHIMURIUM, Strain/Indicator: TA97, Metabolic Activation: NONE, Method: PREINCUBATION
Where [2] appears, read: Test System: AMES SALMONELLA TYPHIMURIUM, Strain/Indicator: TA98, Metabolic Activation: NONE, Method: PREINCUBATION
Where [3] appears, read: Test System: AMES SALMONELLA TYPHIMURIUM, Strain/Indicator: TA100, Metabolic Activation: HAMSTER, LIVER, S-9, AROCLOR 1254 (10%), Method: PREINCUBATION
Where [4] appears, read: Test System: AMES SALMONELLA TYPHIMURIUM, Strain/Indicator: TA100, Metabolic Activation: NONE, Method: PREINCUBATION
Setting [5] is: Test System: AMES SALMONELLA TYPHIMURIUM, Strain/Indicator: TA1535, Metabolic Activation: NONE, Method: PREINCUBATION
[6] abbreviates: Test System: AMES SALMONELLA TYPHIMURIUM, Strain/Indicator: TA98, Metabolic Activation: NONE, Method: STANDARD PLATE.
[7] abbreviates: Test System: AMES SALMONELLA TYPHIMURIUM, Strain/Indicator: TA100, Metabolic Activation: NONE, Method: STANDARD PLATE.

SMILES strings stand for the structures. Calls of active or inactive are those of the source. How the calls were made is not given here.

For the molecule `OCCCCO`, the mutagenic call is “inactive; negative” (Test System: AMES SALMONELLA TYPHIMURIUM, Strain/Indicator: TA97, Metabolic Activation: HAMSTER, LIVER, S-9, AROCLOR 1254 (10 OR 30%), Method: PREINCUBATION); “inactive; negative” under setting [1]; “inactive; negative” (Test System: AMES SALMONELLA TYPHIMURIUM, Strain/Indicator: TA97, Metabolic Activation: RAT, LIVER, S-9, AROCLOR 1254 (10 OR 30%), Method: PREINCUBATION); “inactive; negative” (Test System: AMES SALMONELLA TYPHIMURIUM, Strain/Indicator: TA98, Metabolic Activation: HAMSTER, LIVER, S-9, AROCLOR 1254 (10 OR 30%), Method: PREINCUBATION); “inactive; negative” under setting [2]; “inactive; negative” (Test System: AMES SALMONELLA TYPHIMURIUM, Strain/Indicator: TA98, Metabolic Activation: RAT, LIVER, S-9, AROCLOR 1254 (10 OR 30%), Method: PREINCUBATION). Besides, the mutagenic call under setting [3] was “inactive; negative”; the mutagenic call (Test System: AMES SALMONELLA TYPHIMURIUM, Strain/Indicator: TA100, Metabolic Activation: HAMSTER, LIVER, S-9, AROCLOR 1254 (30%), Method: PREINCUBATION) was “inactive; negative”; the mutagenic call under setting [4] was “inactive; negative”; the mutagenic call (Test System: AMES SALMONELLA TYPHIMURIUM, Strain/Indicator: TA100, Metabolic Activation: RAT, LIVER, S-9, AROCLOR 1254 (10 OR 30%), Method: PREINCUBATION) was “inactive; negative”; the mutagenic call (Test System: AMES SALMONELLA TYPHIMURIUM, Strain/Indicator: TA1535, Metabolic Activation: HAMSTER, LIVER, S-9, AROCLOR 1254 (10 OR 30%), Method: PREINCUBATION) is “inactive; negative”; the mutagenic call under setting [5] was “inactive; negative”. Besides, the mutagenic call (Test System: AMES SALMONELLA TYPHIMURIUM, Strain/Indicator: TA1535, Metabolic Activation: RAT, LIVER, S-9, AROCLOR 1254 (10 OR 30%), Method: PREINCUBATION) is “inactive; negative”.
Turning to `Nc1ccccc1-c1ccccc1`, the mutagenic call (End Point: IN VITRO CHROMOSOMAL ABERRATIONS, Test System: CHO CELLS, Metabolic Activation: RAT, LIVER, S-9, AROCLOR 1254) is “inactive; negative”; the mutagenic call (End Point: IN VITRO CHROMOSOMAL ABERRATIONS, Test System: CHO-WBL CELLS, Metabolic Activation: RAT, LIVER, S-9, PHENOBARBITAL AND BETA-NAPHTHOFLAVONE) is “active; positive (at 24 hr)”; the mutagenic call (Test System: AMES SALMONELLA TYPHIMURIUM, Strain/Indicator: TA97, Metabolic Activation: HAMSTER, LIVER, S-9, AROCLOR 1254 (10%), Method: PREINCUBATION) is “inactive; negative”; the mutagenic call under setting [1] is “inactive; negative”; the mutagenic call (Test System: AMES SALMONELLA TYPHIMURIUM, Strain/Indicator: TA97, Metabolic Activation: RAT, LIVER, S-9, AROCLOR 1254 (10%), Method: PREINCUBATION) was “inactive; negative”; the mutagenic call (Test System: AMES SALMONELLA TYPHIMURIUM, Strain/Indicator: TA98, Metabolic Activation: HAMSTER, LIVER, S-9, AROCLOR 1254 (10%), Method: PREINCUBATION) was “inactive; negative”. The mutagenic call runs as follows: under setting [2], “inactive; negative”; under setting [6], “inactive; negative”; (Test System: AMES SALMONELLA TYPHIMURIUM, Strain/Indicator: TA98, Metabolic Activation: RAT LIVER S-9, AROCLOR 1254, Method: PREINCUBATION) “inactive; negative”; (Test System: AMES SALMONELLA TYPHIMURIUM, Strain/Indicator: TA98, Metabolic Activation: RAT, LIVER, S-9, AROCLOR 1254 (4%), Method: STANDARD PLATE) “inactive; negative”; (Test System: AMES SALMONELLA TYPHIMURIUM, Strain/Indicator: TA98, Metabolic Activation: RAT, LIVER, S-9, AROCLOR 1254 (10%), Method: PREINCUBATION) “inactive; negative”; under setting [3], “active; positive”. Besides, the mutagenic call was “inactive; negative” under setting [4]; “inactive; negative” under setting [7]; “inactive; negative” (Test System: AMES SALMONELLA TYPHIMURIUM, Strain/Indicator: TA100, Metabolic Activation: RAT LIVER S-9, AROCLOR 1254, Method: PREINCUBATION); “active; positive” (Test System: AMES SALMONELLA TYPHIMURIUM, Strain/Indicator: TA100, Metabolic Activation: RAT, LIVER, S-9, AROCLOR 1254 (10%), Method: PREINCUBATION); “inactive; negative” (Test System: AMES SALMONELLA TYPHIMURIUM, Strain/Indicator: TA1535, Metabolic Activation: HAMSTER, LIVER, S-9, AROCLOR 1254 (10%), Method: PREINCUBATION); “inactive; negative” under setting [5]. Further, the mutagenic call (Test System: AMES SALMONELLA TYPHIMURIUM, Strain/Indicator: TA1535, Metabolic Activation: RAT, LIVER, S-9, AROCLOR 1254 (10%), Method: PREINCUBATION) was “inactive; negative”.
In the case of `Cc1ccc2c(c1)C(=O)c1ccccc1C2=O`, the mutagenic call is, setting by setting: (Test System: AMES SALMONELLA TYPHIMURIUM, Strain/Indicator: TA97, Metabolic Activation: NONE, Method: STANDARD PLATE) “inactive; negative”; (Test System: AMES SALMONELLA TYPHIMURIUM, Strain/Indicator: TA97, Metabolic Activation: RAT, LIVER, S-9, PCB, Method: STANDARD PLATE) “inactive; negative”; under setting [2], “inactive; negative”; under setting [6], “inactive; negative”; (Test System: AMES SALMONELLA TYPHIMURIUM, Strain/Indicator: TA98, Metabolic Activation: RAT, LIVER, S-9, PCB, Method: PREINCUBATION) “inactive; negative”; (Test System: AMES SALMONELLA TYPHIMURIUM, Strain/Indicator: TA98, Metabolic Activation: RAT, LIVER, S-9, PCB, Method: STANDARD PLATE) “inactive; negative”. The mutagenic call by setting is: under setting [4], “inactive; negative”; under setting [7], “inactive; negative”; (Test System: AMES SALMONELLA TYPHIMURIUM, Strain/Indicator: TA100, Metabolic Activation: RAT, LIVER, S-9, PCB, Method: PREINCUBATION) “inactive; negative”; (Test System: AMES SALMONELLA TYPHIMURIUM, Strain/Indicator: TA100, Metabolic Activation: RAT, LIVER, S-9, PCB, Method: STANDARD PLATE) “inactive; negative”.
Take `O=Nc1ccc2ccccc2c1`: the mutagenic call reads like this: under setting [6], “active; positive”; (Test System: AMES SALMONELLA TYPHIMURIUM, Strain/Indicator: TA98, Metabolic Activation: S-9, Method: STANDARD PLATE) “active; positive”; under setting [7], “active; positive”; (Test System: AMES SALMONELLA TYPHIMURIUM, Strain/Indicator: TA100, Metabolic Activation: S-9, Method: STANDARD PLATE) “active; positive”; (Test System: AMES SALMONELLA TYPHIMURIUM, Strain/Indicator: TA1538, Metabolic Activation: NONE, Method: STANDARD PLATE) “active; positive”.
As for `c1cc2c3c(c1)=C1OC1C=3Cc1cc3ccccc3cc1-2` (centres undefined), the mutagenic call was “active; positive” under setting [6] and “active; positive” (Test System: AMES SALMONELLA TYPHIMURIUM, Strain/Indicator: TA98, Metabolic Activation: RAT, LIVER, S-9, AROCLOR 1254, Method: STANDARD PLATE).
